Laboratory results taken from ChEMBL document CHEMBL3856246, “Pharbilignan C induces apoptosis through a mitochondria-mediated intrinsic pathway in human breast cancer cells” (Bioorg Med Chem Lett, 2016).
Calls of active or inactive are those of the source. The rule behind the calls is not given here.

Tests used:
[1] = tested on: MCF7; assay: Induction of apoptosis in human MCF7 cells assessed as late apoptotic cells at 5 uM after 72 hrs by Annexin V-FITC/propidium iodide based flow cytometric analysis (reference value: 1.28 %); format: functional
[2] = tested on: MCF7; assay: Induction of apoptosis in human MCF7 cells assessed as early apoptotic cells at 5 uM after 72 hrs by Annexin V-FITC/propidium iodide based flow cytometric analysis (reference value: 1.14 %); format: functional
[3] = tested on: MCF7; assay: Induction of apoptosis in human MCF7 cells assessed as viable cells at 5 uM after 72 hrs by Annexin V-FITC/propidium iodide based flow cytometric analysis (reference value: 94.10 %); format: functional; conditions: MCF7, 72 h, read-out: Activity
[4] = Cytotoxicity against human A549 cells after 48 hrs by SRB assay; format: functional, cell-based; conditions: A549, 48 h
[5] = Cytotoxicity against human SKOV3 cells after 48 hrs by SRB assay; format: functional, cell-based; conditions: SK-OV-3, 48 h
[6] = Cytotoxicity against human SK-MEL-2 cells after 48 hrs by SRB assay; format: functional, cell-based; conditions: SK-MEL-2, 48 h
[7] = Cytotoxicity against human HCT15 cells after 48 hrs by SRB assay; format: functional, cell-based; conditions: HCT-15, 48 h
[8] = (§1) Cytotoxicity against human MDA-MB-231 cells assessed as reduction in cell viability after 72 hrs by WST1 assay; format: functional, cell-based; conditions: MDA-MB-231, 72 h
[9] = tested on: MDA-MB-231; assay: as §1; format: functional, cell-based
[10] = tested on: MCF7; assay: Cytotoxicity against human MCF7 cells assessed as reduction in cell viability after 72 hrs by WST1 assay; format: functional, cell-based
[11] = tested on: MDA-MB-231; assay: Induction of apoptosis in human MDA-MB-231 cells assessed as necrotic cells at 5 uM after 72 hrs by Annexin V-FITC/propidium iodide based flow cytometric analysis (reference value: 0.33 %); format: functional
[12] = tested on: MDA-MB-231; assay: Induction of apoptosis in human MDA-MB-231 cells assessed as viable cells at 5 uM after 72 hrs by Annexin V-FITC/propidium iodide based flow cytometric analysis (reference value: 91.87 %); format: functional; conditions: MDA-MB-231, 72 h, read-out: Activity
[13] = tested on: MDA-MB-231; assay: Induction of apoptosis in human MDA-MB-231 cells assessed as early apoptotic cells at 5 uM after 72 hrs by Annexin V-FITC/propidium iodide based flow cytometric analysis (reference value: 7.73 %); format: functional
[14] = tested on: MDA-MB-231; assay: Induction of apoptosis in human MDA-MB-231 cells assessed as late apoptotic cells at 5 uM after 72 hrs by Annexin V-FITC/propidium iodide based flow cytometric analysis (reference value: 0.07 %); format: functional
[15] = tested on: MDA-MB-231; assay: Induction of apoptosis in human MDA-MB-231 cells assessed as viable cells at 10 uM after 72 hrs by Annexin V-FITC/propidium iodide based flow cytometric analysis (reference value: 91.87 %); format: functional; conditions: MDA-MB-231, 72 h, read-out: Activity
[16] = tested on: MDA-MB-231; assay: Induction of apoptosis in human MDA-MB-231 cells assessed as early apoptotic cells at 10 uM after 72 hrs by Annexin V-FITC/propidium iodide based flow cytometric analysis (reference value: 7.73 %); format: functional
[17] = tested on: MDA-MB-231; assay: Induction of apoptosis in human MDA-MB-231 cells assessed as late apoptotic cells at 10 uM after 72 hrs by Annexin V-FITC/propidium iodide based flow cytometric analysis (reference value: 0.07 %); format: functional
[18] = tested on: MDA-MB-231; assay: Induction of apoptosis in human MDA-MB-231 cells assessed as necrotic cells at 10 uM after 72 hrs by Annexin V-FITC/propidium iodide based flow cytometric analysis (reference value: 0.33 %); format: functional
[19] = tested on: MDA-MB-231; assay: Induction of apoptosis in human MDA-MB-231 cells assessed as viable cells at 20 uM after 72 hrs by Annexin V-FITC/propidium iodide based flow cytometric analysis (reference value: 91.87 %); format: functional; conditions: MDA-MB-231, 72 h, read-out: Activity
[20] = tested on: MDA-MB-231; assay: Induction of apoptosis in human MDA-MB-231 cells assessed as early apoptotic cells at 20 uM after 72 hrs by Annexin V-FITC/propidium iodide based flow cytometric analysis (reference value: 7.73 %); format: functional
[21] = tested on: MDA-MB-231; assay: Induction of apoptosis in human MDA-MB-231 cells assessed as late apoptotic cells at 20 uM after 72 hrs by Annexin V-FITC/propidium iodide based flow cytometric analysis (reference value: 0.07 %); format: functional
[22] = tested on: MDA-MB-231; assay: Induction of apoptosis in human MDA-MB-231 cells assessed as necrotic cells at 20 uM after 72 hrs by Annexin V-FITC/propidium iodide based flow cytometric analysis (reference value: 0.33 %); format: functional
[23] = tested on: MCF7; assay: Induction of apoptosis in human MCF7 cells assessed as necrotic cells at 5 uM after 72 hrs by Annexin V-FITC/propidium iodide based flow cytometric analysis (reference value: 3.48 %); format: functional
[24] = tested on: MCF7; assay: Induction of apoptosis in human MCF7 cells assessed as viable cells at 10 uM after 72 hrs by Annexin V-FITC/propidium iodide based flow cytometric analysis (reference value: 94.10 %); format: functional; conditions: MCF7, 72 h, read-out: Activity
[25] = tested on: MCF7; assay: Induction of apoptosis in human MCF7 cells assessed as early apoptotic cells at 10 uM after 72 hrs by Annexin V-FITC/propidium iodide based flow cytometric analysis (reference value: 1.14 %); format: functional
[26] = tested on: MCF7; assay: Induction of apoptosis in human MCF7 cells assessed as late apoptotic cells at 10 uM after 72 hrs by Annexin V-FITC/propidium iodide based flow cytometric analysis (reference value: 1.28 %); format: functional
[27] = tested on: MCF7; assay: Induction of apoptosis in human MCF7 cells assessed as necrotic cells at 10 uM after 72 hrs by Annexin V-FITC/propidium iodide based flow cytometric analysis (reference value: 3.48 %); format: functional
[28] = tested on: MCF7; assay: Induction of apoptosis in human MCF7 cells assessed as viable cells at 20 uM after 72 hrs by Annexin V-FITC/propidium iodide based flow cytometric analysis (reference value: 94.10 %); format: functional; conditions: MCF7, 72 h, read-out: Activity
[29] = tested on: MCF7; assay: Induction of apoptosis in human MCF7 cells assessed as early apoptotic cells at 20 uM after 72 hrs by Annexin V-FITC/propidium iodide based flow cytometric analysis (reference value: 1.14 %); format: functional
[30] = tested on: MCF7; assay: Induction of apoptosis in human MCF7 cells assessed as late apoptotic cells at 20 uM after 72 hrs by Annexin V-FITC/propidium iodide based flow cytometric analysis (reference value: 1.28 %); format: functional
[31] = tested on: MCF7; assay: Induction of apoptosis in human MCF7 cells assessed as necrotic cells at 20 uM after 72 hrs by Annexin V-FITC/propidium iodide based flow cytometric analysis (reference value: 3.48 %); format: functional
[32] = tested on: MDA-MB-231; assay: Induction of apoptosis in human MDA-MB-231 cells after 72 hrs by Annexin V-FITC/propidium iodide based flow cytometric analysis; format: functional, cell-based
[33] = tested on: MDA-MB-231; assay: Induction of apoptosis in human MDA-MB-231 cells assessed as downregulation of Bcl2 expression up to 20 uM after 72 hrs by Western blot analysis; format: functional, cell-based
[34] = Induction of apoptosis in human MDA-MB-231 cells assessed as upregulation of Bax expression up to 20 uM after 72 hrs by Western blot analysis; format: functional, cell-based
[35] = tested on: MDA-MB-231; assay: Induction in apoptosis in human MDA-MB-231 cells assessed as decrease in mitochondrial membrane potential at 20 uM after 24 hrs by JC1 fluorescent dye based confocal microscopic analysis; format: functional, cell-based
[36] = tested on: MDA-MB-231; assay: Induction of apoptosis in human MDA-MB-231 cells assessed as caspase-9 activation upto 20 uM after 72 hrs by Western blot analysis; format: functional, cell-based
[37] = tested on: MDA-MB-231; assay: Induction of apoptosis in human MDA-MB-231 cells assessed as caspase-3 activation upto 20 uM after 72 hrs by Western blot analysis; format: functional, cell-based

Compound: CCOC(=O)/C=C/c1cc(O)c2c(c1)[C@@H](C(=O)OCC)[C@@H](c1ccc(O)c(O)c1)O2
- Activity [1]: 0.6%
- Activity [2]: 0.68%
- viability at 5 µM [3]: 91.5%
- IC50 [4]: 1420 nM
- IC50 [5]: 160 nM
- IC50 [6]: 200 nM
- IC50 [7]: 140 nM
- IC50 [8]: 7 µM
- Activity [9]: Dose-dependent effect
- Activity [10]: Dose-dependent effect
- Activity [11]: 0.2%
- viability at 5 µM [12]: 93%
- Activity [13]: 6.73%
- Activity [14]: 0.1%
- viability at 10 µM [15]: 77.1%
- Activity [16]: 19.5%
- Activity [17]: 1.5%
- Activity [18]: 1.9%
- viability at 20 µM [19]: 68.3%
- Activity [20]: 25.63%
- Activity [21]: 3.17%
- Activity [22]: 2.87%
- Activity [23]: 7.24%
- viability at 10 µM [24]: 88.9%
- Activity [25]: 0.7%
- Activity [26]: 1.1%
- Activity [27]: 9.3%
- viability at 20 µM [28]: 84.9%
- Activity [29]: 1.22%
- Activity [30]: 1.38%
- Activity [31]: 12.46%
- Activity [32]: Dose-dependent effect
- Activity [33]: Active
- Activity [34]: Active
- Activity [35]: Active
- Activity [36]: Active
- Activity [37]: Active
